Assay results as given in patent publication US20100041896A1, “Macrolide compound with bis-oxazoly” (priority 2008, published 2010).
Values after ≈ are worked out from the molar mass of the structure shown.

Columns and labels:
[1] = Solubility (physical and chemical properties); assay type: physicochemical
K562 cells = experiment: anti-tumor in vitro experiment, K562 cell growth inhibition (trypan blue counting); assay type: cell-based; conditions: Homo sapiens, 48 hours at 37° C., trypan blue living-cell count, read-out: median inhibitory concentration IC50
Method: Implementation case 3: anti-tumor in vitro experiments
The cultivation condition for K562 cells (human chronic myeloid leukemia leap cell lines) is: the volume fraction of 10 percent of the calf serum RPMI1640, penicillin (100 IU/ml) and streptomycin (100 μg/ml), at 37° C., 5% CO2 incubation box for cultivation. Take the logarithm growth period cells used for the inhibition rate experiments, with the concentration of cells inoculated 2.5×10^5/ml. In the 96-pore cultivation board, K562 cells are vaccinated with the inoculation amount of about 5×10^4/pore, 200 μl each pore. The drug is dissolved in dimethyl sulfoxide (DMSO), making the storage fluid of 10 mg/ml. Four groups are set up in this experiment, adding different concentrations of drugs respectively, so that the final concentrations are respectively 0.1, 1, 10, 100 μg/ml. There is no drug added for the reference control group, and three parallel holes are set up for each group, cultivating at 37° C. for 48 hours. Taking 0.4 percent trypan blue liquid (take 4 g trypan blue and put it into 100 ml PBS, making four percent trypan blue raw fluid, filtrated and disinfected, stored in 4° C. refrigerator, ready to use. Concentration is of 0.4 percent) and the cell suspension fluid, 50 μl respectively, mixing, and then take appropriate mixed fluid to fill in cell counting board, counting the four big grid non-coloring living cells. […]

Solubility ([1]; in methyl alcohol, ethyl acetate and dimethylsulfoxide): soluble
Solubility ([1]; in n-hexane or petroleum ether): nearly insoluble
Solubility ([1]; in water): insoluble
IC50 (K562 cells): 12.4 µg/mL (≈ 24.8 µM)
Compound: C/C1=C/[C@H](C)C[C@H](C)[C@H](Cc2cnco2)OC(=O)/C(C)=C\[C@H](C)C[C@H](C)C(Cc2cnco2)OC1=O (stereo partly shown) [FW-04-806]
